Some test systems named below: 786-0; HCC 2998; HT-29; IGROV-1; LXFL 529; MOLT-4; NCI-H226; NCI-H23; NCI-H460; NCI-H522; OVCAR-4; SN12C; SNB-19; U-251; UACC-62; A498; HL-60; LOX IMVI; NCI/ADR-RES; RXF 393.
Common to all, as to assay: DTP human tumour cell line panel, 48 h

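Grown in 96-well plates, cells were treated for 48 hours with each compound at five concentrations. Insufficient inhibition: endpoint recorded as highest concentration tested. Here, GI50 denotes the concentration required for 50% inhibition of growth.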 Activity calls are given as the source filed them. No stated cut-off is given here; in the data, active = GI50 up to about 1.1 µM and inactive = higher. Bounds are passed on as bounds.

What is called GI50 is the concentration giving 50% growth inhibition. In the case of `COc1ccc(CCc2cc(OC)c(O)c(OC)c2)cc1`, the GI50 in the assay with 786-0 is > 100 µM (inactive); in the assay on HCC 2998, 52 µM (inactive); in the assay on HT-29, 41 µM (inactive); in the assay on IGROV-1, > 100 µM (inactive); in the assay with LXFL 529, 54.8 µM (inactive); in the assay on MOLT-4 it was 35.7 µM (inactive). For the same compound, the GI50 in the assay on NCI-H226 is 41.8 µM (inactive); in the assay on NCI-H23, 37.2 µM (inactive); in the assay with NCI-H460, 82 µM (inactive); with NCI-H522, 29.7 µM (inactive); with OVCAR-4 it was 81.5 µM (inactive); in the assay on SN12C it was > 100 µM (inactive). In addition, the GI50 in the assay with SNB-19 was 98.6 µM (inactive); in the assay with U-251, 41.8 µM (inactive); with UACC-62, 69 µM (inactive).

With `CCCCC1CC(c2ccc(Cl)cc2)=NO1` (centres undefined), the GI50 is > 100 µM (inactive) in the assay on 786-0; > 100 µM (inactive) in the assay with A498; > 100 µM (inactive) in the assay with HCC 2998; 85.3 µM (inactive) in the assay with HL-60; > 100 µM (inactive) with HT-29; > 100 µM (inactive) in the assay on IGROV-1. Further, the GI50 in the assay on LXFL 529, in the assay on MOLT-4, in the assay with NCI-H226, in the assay on NCI-H23, in the assay with NCI-H460 and with NCI-H522 was > 100 µM (inactive) in each case. Further, the GI50 with OVCAR-4, with SN12C, in the assay with SNB-19, in the assay with U-251 and in the assay with UACC-62 was > 100 µM (inactive) throughout.

On to `CCOC(=O)C1Cc2c(cc3c4c(cccc24)N(C(C)=O)C3)N(C)C1` (centres undefined), for which the GI50 in the assay with 786-0 was 4.03 µM (inactive); with A498 it was > 100 µM (inactive); in the assay with HCC 2998 it was > 100 µM (inactive); in the assay with HL-60, 11.3 µM (inactive); with HT-29, > 100 µM (inactive); in the assay with IGROV-1, 5.83 µM (inactive). Also, the GI50 in the assay with LOX IMVI was 6.35 µM (inactive); with MOLT-4, 4.02 µM (inactive); with NCI-H226, 2.9 µM (inactive); with NCI-H23, > 100 µM (inactive); in the assay on NCI-H460 it was > 100 µM (inactive); in the assay on NCI-H522, 0.0681 µM (active). In addition, the GI50 in the assay with NCI/ADR-RES is 1.64 µM (inactive); with OVCAR-4 it was 84.9 µM (inactive); with RXF 393 it was 4.13 µM (inactive); in the assay with SN12C, 6.04 µM (inactive); with SNB-19 it was > 100 µM (inactive); with U-251 it was 4.93 µM (inactive). Further, the GI50 in the assay with UACC-62 was 13.4 µM (inactive).

For the compound `Cn1nc(-c2ccccc2)c(C(=O)/C=C/c2ccc(F)cc2)c(N2CCCC2)c1=O`, the GI50 is 13 µM (inactive) in the assay on 786-0; 0.644 µM (active) in the assay with HL-60; 4.99 µM (inactive) in the assay with HT-29; 21.4 µM (inactive) with IGROV-1; 17.9 µM (inactive) in the assay on LOX IMVI; 12.8 µM (inactive) in the assay on LXFL 529. For the same compound, the GI50 in the assay with MOLT-4 was 4.41 µM (inactive); with NCI-H23, 10.9 µM (inactive); with NCI-H460, 21.7 µM (inactive); with NCI-H522, 6.4 µM (inactive); in the assay with RXF 393 it was 8.2 µM (inactive); in the assay on SN12C it was 16.9 µM (inactive). The values for the GI50 with SNB-19, with U-251 and in the assay on UACC-62 were 17.2 µM (inactive), 13.2 µM (inactive) and 12.7 µM (inactive), respectively.

As for `C=C[C@@H]1C(CO)=CCC2[C@H]1CCC1C(C)(C)C(=O)CC[C@]21C` (some centres undefined), the GI50 was > 100 µM (inactive) with 786-0; > 100 µM (inactive) in the assay on A498; > 100 µM (inactive) in the assay on HCC 2998; 59.3 µM (inactive) in the assay on HL-60; > 100 µM (inactive) in the assay on HT-29; > 100 µM (inactive) in the assay with IGROV-1. The GI50 with LOX IMVI, in the assay on MOLT-4, in the assay with NCI-H226, with NCI-H23, in the assay on NCI-H460 and with NCI-H522 was > 100 µM (inactive) in each case. Moreover, the GI50 in the assay with NCI/ADR-RES, in the assay with OVCAR-4, in the assay on RXF 393, in the assay with SN12C, in the assay with SNB-19 and in the assay on U-251 was > 100 µM (inactive) each time. Also, the GI50 in the assay with UACC-62 is > 100 µM (inactive).

In the case of `Cn1c2n/c(=N\c3ccc(Cl)cc3)[n+]3ccc4ccccc4c3c-2c([O-])n1-c1ccccc1`, the GI50 with 786-0, with A498, in the assay on HCC 2998, in the assay with HL-60, in the assay with HT-29 and in the assay on IGROV-1 was > 100 µM (inactive) each time. In addition, the GI50 with LOX IMVI, with MOLT-4, with NCI-H226, with NCI-H23, in the assay with NCI-H460 and in the assay on NCI-H522 was > 100 µM (inactive) in each case. For the same compound, the GI50 in the assay with NCI/ADR-RES, in the assay on OVCAR-4, in the assay with RXF 393, in the assay on SN12C, in the assay with SNB-19 and in the assay with U-251 was > 100 µM (inactive) each time. Further, in the assay with UACC-62, the GI50 is > 100 µM (inactive).

As for `O=C1Nc2ccccc2/C1=N/Nc1ccc([N+](=O)[O-])cc1[N+](=O)[O-]`, the GI50 was 9.25 µM (inactive) in the assay with 786-0; 22.4 µM (inactive) in the assay with A498; 11.6 µM (inactive) in the assay with HCC 2998; > 100 µM (inactive) with HL-60; 19.1 µM (inactive) with HT-29; 7.94 µM (inactive) with IGROV-1. The GI50 is 6.78 µM (inactive) in the assay on LOX IMVI; > 100 µM (inactive) in the assay with MOLT-4; 12 µM (inactive) in the assay with NCI-H226; 12.4 µM (inactive) with NCI-H23; 7.89 µM (inactive) in the assay with NCI-H460; 12.9 µM (inactive) in the assay on NCI-H522. The GI50 in the assay with NCI/ADR-RES is 8.09 µM (inactive); with OVCAR-4, 10 µM (inactive); in the assay on RXF 393, 13.6 µM (inactive); in the assay with SN12C it was 11.3 µM (inactive); with SNB-19 it was 19.4 µM (inactive); in the assay on U-251, 8.87 µM (inactive). Moreover, the GI50 in the assay on UACC-62 is 20.3 µM (inactive).

Turning to `Nc1ccc2c(c1)N(C(=O)CCCC(=O)N1CC(CCl)c3ccc(N)cc31)CC2CCl` (centres undefined), the GI50 in the assay on 786-0 was 0.169 µM (active); with A498 it was 1.07 µM (active); in the assay on HCC 2998 it was 1.45 µM (inactive); in the assay with HL-60 it was 0.0199 µM (active); in the assay on HT-29 it was 0.946 µM (active); with IGROV-1 it was 0.411 µM (active). The GI50 was 0.267 µM (active) in the assay on LOX IMVI; 0.0646 µM (active) in the assay with MOLT-4; 0.0226 µM (active) in the assay with NCI-H226; 0.218 µM (active) in the assay on NCI-H23; 0.716 µM (active) in the assay with NCI-H460; 0.0713 µM (active) in the assay on NCI-H522. The GI50 in the assay on NCI/ADR-RES was 1.15 µM (inactive); in the assay with OVCAR-4 it was 0.867 µM (active); with RXF 393 it was 0.195 µM (active); in the assay on SN12C, 0.469 µM (active); with SNB-19, 1.21 µM (inactive); in the assay on U-251, 0.513 µM (active). Moreover, in the assay on UACC-62, the GI50 is 0.354 µM (active).

Consider `NC(=O)N/N=C\CC(O)(C(F)(F)Cl)C(F)(F)Cl`, for which the GI50 in the assay on 786-0, with A498, in the assay on HCC 2998, with HL-60, in the assay with HT-29 and in the assay on IGROV-1 was > 10 µM (inactive) in each case. The GI50 in the assay with LOX IMVI, in the assay on MOLT-4, in the assay on NCI-H226, in the assay with NCI-H23, in the assay on NCI-H460 and in the assay on NCI-H522 was > 10 µM (inactive) throughout. Moreover, the GI50 in the assay on NCI/ADR-RES, with OVCAR-4, with RXF 393, in the assay with SN12C, with SNB-19 and with U-251 was > 10 µM (inactive) each time. Moreover, in the assay with UACC-62, the GI50 is > 10 µM (inactive).

For `COc1cccc(Nc2nc(N)nc(N)c2N)c1`, the GI50 in the assay with 786-0 is 39.7 µM (inactive); in the assay on A498, > 100 µM (inactive); in the assay with HCC 2998 it was 98.2 µM (inactive); in the assay on HL-60 it was 24.2 µM (inactive); with HT-29, 40.7 µM (inactive); in the assay with IGROV-1 it was 35.1 µM (inactive). Also, the GI50 was 21.4 µM (inactive) in the assay with LOX IMVI; 15.4 µM (inactive) in the assay on MOLT-4; > 100 µM (inactive) in the assay with NCI-H226; 33.4 µM (inactive) with NCI-H23; 20 µM (inactive) in the assay with NCI-H460; 30 µM (inactive) with NCI-H522. The GI50 with NCI/ADR-RES is > 100 µM (inactive); with OVCAR-4, > 100 µM (inactive); in the assay on RXF 393, > 100 µM (inactive); in the assay on SN12C, 20.1 µM (inactive); with SNB-19, > 100 µM (inactive); in the assay with U-251, 76.9 µM (inactive). Also, in the assay on UACC-62, the GI50 was 58.2 µM (inactive).

Take `COP(=O)(O)/C=C/C(NC(=O)C(Cl)(Cl)Cl)c1ccccc1` (centres undefined): the GI50 with 786-0, in the assay with A498, with HCC 2998, in the assay on HL-60, in the assay with HT-29 and in the assay with IGROV-1 was > 100 µM (inactive) in each case. Further, the GI50 with LOX IMVI, in the assay with MOLT-4, with NCI-H226, with NCI-H23, in the assay on NCI-H460 and in the assay on NCI-H522 was > 100 µM (inactive) each time. For the same compound, the GI50 with NCI/ADR-RES, with OVCAR-4, with RXF 393, with SN12C, in the assay on SNB-19 and in the assay with U-251 was > 100 µM (inactive) each time. The GI50 in the assay on UACC-62 was > 100 µM (inactive).
